The values that follow come from patent US20260207585A1, “METHODS AND COMPOSITIONS FOR THE TREATMENT OF PARKINSON'S DISEASE, HUNTINGTON'S DISEASE, AMYOTROPHIC LATERAL SCLEROSIS, AND LEARNING DISORDERS” (Cedars-Sinai Medical Center, priority 2022, published 2026).

Read-outs that look alike come from different tables or passages of the source.

In one series the target is MLL4 Complex (Homo sapiens, UniProt Q9UMN6). Nature of the series: Methyltransferase inhibition panel: MLL4 Complex. Format: biochemical. As to the method: (§1) The ability of ETP69 to inhibit methyltransferases was tested.
A further series deals with T1, NSD3 (Homo sapiens, UniProt Q9BZ95).
T1 sequence (Q9BZ95 1-1437): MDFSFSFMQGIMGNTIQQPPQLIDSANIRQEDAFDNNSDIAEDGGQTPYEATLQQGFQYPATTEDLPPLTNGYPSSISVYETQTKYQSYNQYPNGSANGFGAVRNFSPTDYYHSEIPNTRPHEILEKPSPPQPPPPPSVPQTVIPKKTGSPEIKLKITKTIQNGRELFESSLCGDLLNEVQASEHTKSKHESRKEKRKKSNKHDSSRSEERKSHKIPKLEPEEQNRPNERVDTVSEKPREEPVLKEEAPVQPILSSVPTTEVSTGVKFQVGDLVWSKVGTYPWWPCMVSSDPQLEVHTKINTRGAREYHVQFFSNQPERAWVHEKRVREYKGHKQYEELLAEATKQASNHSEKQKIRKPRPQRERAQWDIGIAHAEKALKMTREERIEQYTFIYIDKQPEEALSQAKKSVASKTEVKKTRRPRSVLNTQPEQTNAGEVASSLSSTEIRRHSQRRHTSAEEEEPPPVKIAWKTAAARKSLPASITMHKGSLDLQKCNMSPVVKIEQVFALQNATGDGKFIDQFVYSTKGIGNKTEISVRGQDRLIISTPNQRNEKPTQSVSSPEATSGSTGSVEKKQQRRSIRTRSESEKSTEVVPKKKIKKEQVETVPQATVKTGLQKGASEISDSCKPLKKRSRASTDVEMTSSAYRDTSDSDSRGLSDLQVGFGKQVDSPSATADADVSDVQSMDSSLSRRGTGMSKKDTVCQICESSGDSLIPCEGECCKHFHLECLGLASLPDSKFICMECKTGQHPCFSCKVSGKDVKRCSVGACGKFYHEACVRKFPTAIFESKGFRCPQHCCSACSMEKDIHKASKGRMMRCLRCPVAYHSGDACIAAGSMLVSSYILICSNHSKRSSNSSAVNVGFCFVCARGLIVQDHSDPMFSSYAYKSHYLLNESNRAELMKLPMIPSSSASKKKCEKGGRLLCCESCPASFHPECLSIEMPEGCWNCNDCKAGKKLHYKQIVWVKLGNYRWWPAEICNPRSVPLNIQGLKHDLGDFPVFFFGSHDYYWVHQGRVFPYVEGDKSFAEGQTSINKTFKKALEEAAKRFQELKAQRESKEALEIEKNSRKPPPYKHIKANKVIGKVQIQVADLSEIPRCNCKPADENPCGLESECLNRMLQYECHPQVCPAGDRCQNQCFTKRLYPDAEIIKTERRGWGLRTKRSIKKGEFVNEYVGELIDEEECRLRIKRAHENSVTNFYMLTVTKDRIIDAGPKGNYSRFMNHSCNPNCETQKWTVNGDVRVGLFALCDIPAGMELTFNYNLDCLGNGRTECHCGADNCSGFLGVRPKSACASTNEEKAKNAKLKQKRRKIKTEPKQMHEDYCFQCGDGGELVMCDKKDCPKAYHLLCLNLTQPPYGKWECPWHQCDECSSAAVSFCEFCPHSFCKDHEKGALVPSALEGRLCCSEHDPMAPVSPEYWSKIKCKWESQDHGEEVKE
Nature of the series: Methyltransferase inhibition panel: NSD3. In kind it is biochemical. As to the method:
as §1

The next series concerns the target T2, SET7/9 (Homo sapiens, UniProt Q8WTS6).
T2 sequence (Q8WTS6 1-366): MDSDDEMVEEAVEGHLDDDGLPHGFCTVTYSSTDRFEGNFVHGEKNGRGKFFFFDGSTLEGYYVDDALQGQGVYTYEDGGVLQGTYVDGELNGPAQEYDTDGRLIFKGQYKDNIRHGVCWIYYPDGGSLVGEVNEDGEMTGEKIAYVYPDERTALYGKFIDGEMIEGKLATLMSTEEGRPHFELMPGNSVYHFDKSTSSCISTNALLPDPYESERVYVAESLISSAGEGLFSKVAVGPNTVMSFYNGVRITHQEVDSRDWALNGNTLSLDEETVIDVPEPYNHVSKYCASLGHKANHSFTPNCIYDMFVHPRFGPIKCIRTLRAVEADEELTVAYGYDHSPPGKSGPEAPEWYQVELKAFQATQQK
Nature of the series: Methyltransferase inhibition panel: SET7/9. In kind it is biochemical. As to the method: as §1

Another series has as its target SUV420H1TV2 (Homo sapiens, UniProt Q4FZB7). Nature of the series: Methyltransferase inhibition panel: SUV420H1TV2. In kind it is biochemical. As to the method: as §1
Series [1] concerns wildtype and AD model (APP/PS1-transgenic) mice. In words: Y-Maze test. In kind it is in vivo. As to the method: The effects of single and repeated ETP69 injections in mice were tested. The experimental timeline is depicted in FIG. 5. Three parallel injection conditions were tested: a single ETP69 condition, a boosted ETP69 injection, and repeated ETP69 injections. The single injection mice received one injection of ETP69 or DMSO at Day 0. The mice that received a boosted injection received one injection of ETP69 or DMSO at day 0 and one injection at day 9. The mice that received repeated injections received 11 injections of ETP69 or DMSO at day 0 or day 9. Both wildtype and AD model (APP/PS1-transgenic) mice were tested.
Treatment with ETP69 restored CNS-related locomotor, visual, cognitive functions (FIGS. 6A-611). First, the effects of ETP69 on cognitive and visual protection was tested using the Y-Maze test.

In a further series the test system is 6E10. Nature of the series: 6E10 staining of brain sections. Conditions: AD+ mice; 4 and 15 days. In kind it is in vivo. The text has this:
ETP69 administration reduced AD-related brain pathology (FIGS. 9A-9C). Brain sections were stained for H3K9me3, 6E10 and GFAP.

The nature of a further series: Delivery to the brain. Conditions: in vivo.
Setting [2] is: read-out: Enzyme % Activity (relative to DMSO controls) Data 1.
Setting [3] is: read-out: Enzyme % Activity (relative to DMSO controls) Data 2.
[4] abbreviates: NT1721 20 μM, substrate Nucleosomes 0.05 mg/mL.

Sequence of MLL4 Complex (Q9UMN6 2490-2715): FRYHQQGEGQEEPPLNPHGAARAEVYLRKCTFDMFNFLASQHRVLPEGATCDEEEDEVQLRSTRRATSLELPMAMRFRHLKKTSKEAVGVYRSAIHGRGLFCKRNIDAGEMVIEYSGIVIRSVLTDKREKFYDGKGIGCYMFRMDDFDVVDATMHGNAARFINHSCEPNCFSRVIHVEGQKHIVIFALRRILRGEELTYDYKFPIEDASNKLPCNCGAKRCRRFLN
Sequence of MLL4 Complex (Q9C005 whole entry, further chain): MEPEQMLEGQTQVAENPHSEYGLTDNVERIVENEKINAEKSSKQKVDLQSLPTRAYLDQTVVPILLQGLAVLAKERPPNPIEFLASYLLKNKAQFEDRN
Sequence of MLL4 Complex (Q9UBL3 whole entry, further chain): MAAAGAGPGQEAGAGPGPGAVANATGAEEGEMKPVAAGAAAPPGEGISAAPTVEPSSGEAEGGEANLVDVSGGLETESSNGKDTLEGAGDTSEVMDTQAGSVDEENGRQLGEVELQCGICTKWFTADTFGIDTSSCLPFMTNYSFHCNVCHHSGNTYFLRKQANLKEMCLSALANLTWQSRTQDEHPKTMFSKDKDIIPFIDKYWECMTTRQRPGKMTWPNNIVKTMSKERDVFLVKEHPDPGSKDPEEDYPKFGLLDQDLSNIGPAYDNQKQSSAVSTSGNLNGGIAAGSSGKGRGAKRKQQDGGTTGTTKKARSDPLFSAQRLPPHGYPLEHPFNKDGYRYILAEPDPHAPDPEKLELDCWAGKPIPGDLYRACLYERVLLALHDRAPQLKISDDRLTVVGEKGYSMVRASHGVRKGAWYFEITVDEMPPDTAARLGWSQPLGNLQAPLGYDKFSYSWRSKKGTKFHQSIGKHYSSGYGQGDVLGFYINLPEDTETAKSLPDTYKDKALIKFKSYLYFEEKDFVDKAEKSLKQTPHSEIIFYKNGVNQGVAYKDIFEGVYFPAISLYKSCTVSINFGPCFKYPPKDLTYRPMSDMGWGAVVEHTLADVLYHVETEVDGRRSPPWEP
Sequence of MLL4 Complex (Q15291 whole entry, further chain): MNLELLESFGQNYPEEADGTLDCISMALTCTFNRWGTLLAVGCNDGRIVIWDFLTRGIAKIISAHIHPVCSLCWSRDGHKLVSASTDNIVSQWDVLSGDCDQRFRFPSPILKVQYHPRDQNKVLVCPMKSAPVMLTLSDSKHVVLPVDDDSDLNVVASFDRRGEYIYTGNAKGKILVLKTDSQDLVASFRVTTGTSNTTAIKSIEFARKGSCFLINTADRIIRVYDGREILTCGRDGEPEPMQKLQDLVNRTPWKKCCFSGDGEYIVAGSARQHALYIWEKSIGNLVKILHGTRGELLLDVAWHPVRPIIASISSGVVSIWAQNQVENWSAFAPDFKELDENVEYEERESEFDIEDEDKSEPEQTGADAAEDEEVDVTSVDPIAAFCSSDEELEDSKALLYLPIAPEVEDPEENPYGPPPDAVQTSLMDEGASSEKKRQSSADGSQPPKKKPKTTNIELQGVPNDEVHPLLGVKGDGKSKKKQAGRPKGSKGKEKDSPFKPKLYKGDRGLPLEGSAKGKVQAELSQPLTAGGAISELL
Sequence of SUV420H1TV2 (Q4FZB7 1-393 isoform Q4FZB7-2): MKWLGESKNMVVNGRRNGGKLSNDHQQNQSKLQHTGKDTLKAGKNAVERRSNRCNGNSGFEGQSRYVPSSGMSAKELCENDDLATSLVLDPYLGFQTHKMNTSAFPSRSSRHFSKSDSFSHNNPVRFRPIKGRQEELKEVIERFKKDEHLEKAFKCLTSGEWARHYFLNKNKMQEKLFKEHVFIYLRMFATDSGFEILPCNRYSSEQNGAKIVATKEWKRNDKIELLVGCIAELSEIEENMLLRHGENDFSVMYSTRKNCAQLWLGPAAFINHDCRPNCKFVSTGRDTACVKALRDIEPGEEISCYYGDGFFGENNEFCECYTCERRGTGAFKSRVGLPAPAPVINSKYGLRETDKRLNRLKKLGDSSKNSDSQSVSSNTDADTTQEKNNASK

Turning to `CN1C(=O)[C@@]23C[C@](C)(C#N)[C@H](c4ccc5c(c4)OCO5)N2C(=O)[C@]1(C)SS3` (racemic) [ETP69, Rac-(3S,6S,7S,8aS)-6-(benzo[d][1,3]dioxol-5-yl)-2,3,7-trimethyl-1,4-dioxohexahydro-6H-3,8a-epidithiopyrrolo[1,2-a]pyrazine-7-carbonitrile], the remaining activity at 20 µM is 1.32% on MLL4 Complex (setting [2]); 1.17% on MLL4 Complex (setting [3]); 107% at SET7/9 (setting [2]); 107% at SET7/9 (setting [3]); 91.5% at SUV420H1TV2 (setting [2]); 90% at SUV420H1TV2 (setting [3]). The “inhibition relative to DMSO controls” value against MLL4 Complex (summary of Table 1) and against NSD3 (summary of Table 1) was “at least 7500” in each case. Also, at NSD3 (setting [4]), the “Enzyme % Activity (relative to DMSO controls) Data 1” value was 10.33%. Further, the “Enzyme % Activity (relative to DMSO controls) Data 2” value at NSD3 (setting [4]) came to 10.21%. The percent alternation entry in series [1] (AD+ mice vs AD+ DMSO) is reported as “significant increase”. Besides, the “number of total entries (locomotor activity)” value in series [1] (wildtype and AD+ mice) is recorded as “decreased”. Also, the 6E10 result in the series with 6E10 was “significant decrease”. The “delivery to the brain” value in the series “Delivery to the brain” is listed as “good delivery to the brain”.
